This note sets out measurements from patent publication US8940730B2, “Methods and compositions of treating a Flaviviridae family viral infection” (The Board of Trustees of the Leland Stanford Junior …, priority 2007, dated 2015).

Where two headings read alike, the source gives them in different places. A value given as a limit tells only on which side of the number the result lay.

Experiment [1] concerns HCV RNA replication. Nature of the experiment: Luciferase assay of HCV RNA replication (Table 3). The note with it: Hepatitis C virus, read-out: Residual Luciferase activity.
For experiment [2], the system named is Huh7 cell line. Nature of the experiment: MTT assay for HCV replicon reporter cell lines (cell toxicity). It counts as cell-based. The note with it: Homo sapiens. In general terms: Formazan colour is commonly taken as a measure of viable cells.
In experiment [3] the test system is HCV 1b RNA replicon. The experiment in a line: Luciferase assay for HCV genotype 1b replicon reporter cell lines.
[4] abbreviates: Huh-7, cell toxicity, MTT, top concentration 25 μM, read-out: Cell Viability EC50.
The mark [5] stands for this setting: Hepatitis C virus, Huh-7, 48 h, read-out: 1b EC50, 1b replicon, Huh7, 48 hours, top concentration 25 μM.
The mark [6] stands for this setting: Huh-7, read-out: Cell Viability EC50.

Turning to `CN(C)CCCOc1nn(Cc2ccccc2)c2ccccc12` [Compound 184], in experiment [1], the activity at 5 µM is > 80% and the activity at 10 µM lay within 20 to 54%.
On to `c1ccc(Cn2ncc3ccccc32)cc1` [Compound 185], for which, in experiment [1], the activity at 5 µM is > 80% and the activity at 10 µM was > 80%.
For `Brc1ccc(Cn2ncc3ccccc32)cc1` [Compound 186], in experiment [1], the activity at 5 µM is > 80% and the activity at 10 µM was > 80%.
In the case of `Cc1ccc2c(c1)c(OCCCN(C)C)nn2Cc1ccccc1` [Compound 187], in experiment [1], the activity at 5 µM was 55 to 80% and the activity at 10 µM was in the range of 20 to 54%.
In the case of `Cc1ccc2c(c1)c(O)nn2Cc1ccccc1` [Compound 188], in experiment [1], the activity at 5 µM was > 80% and the activity at 10 µM fell in the range of 20 to 54%.
As for `Oc1nn(Cc2ccccc2)c2ccccc12` [Compound 189], in experiment [1], the activity at 5 µM is > 80% and the activity at 10 µM was > 80%.
With `Cl.c1ccc(Cn2nc(OCCN3CCCCC3)c3ccccc32)cc1` [Compound 190], in experiment [1], the activity at 5 µM was > 80% and the activity at 10 µM is 55 to 80%.
On to `Cc1ccc2c(c1)c(OCCN1CCCCC1)nn2Cc1ccccc1.Cl` [Compound 191], for which, in experiment [1], the activity at 5 µM lay in the range of 55 to 80% and the activity at 10 µM is < 20%.
The corresponding values for `Cl.c1ccc(Cn2nc(OCCCN3CCCC3)c3ccccc32)cc1` [Compound 192] are 55 to 80% and 20 to 54%.
For `Cc1ccc2c(c1)c(OCCCN1CCCC1)nn2Cc1ccccc1` [Compound 193] the same measures were 20 to 54% and < 20%.
For `Cl.c1ccc(Cn2nc(OCCN3CCCC3)c3ccccc32)cc1` [Compound 194] the same measures were > 80% and 55 to 80%.
With `CN(C)CCOc1nn(Cc2ccccc2)c2ccccc12` [Compound 195], in experiment [1], the activity at 5 µM was > 80% and the activity at 10 µM was > 80%.
Regarding `Cc1ccc2c(c1)c(OCCN1CCCC1)nn2Cc1ccccc1` [Compound 196], in experiment [1], the activity at 5 µM lay in the range of 55 to 80% and the activity at 10 µM is 20 to 54%.
Take `Cc1ccc2c(c1)c(OCCN(C)C)nn2Cc1ccccc1` [Compound 197]: in experiment [1], the activity at 5 µM was > 80% and the activity at 10 µM lay in the range of 20 to 54%.
Turning to `c1ccc(Cn2nc(OCCCN3CCCCC3)c3ccccc32)cc1` [Compound 198], in experiment [1], the activity at 5 µM lay in the range of 20 to 54% and the activity at 10 µM is < 20%.
The corresponding values for `Cc1ccc2c(c1)c(OCCCN1CCCCC1)nn2Cc1ccccc1` [Compound 199] are 20 to 54% and < 20%.
The corresponding values for `Cc1cc2c(cnn2Cc2ccc(Cl)cc2)cc1Cl` [Compound 200] are > 80% and 55 to 80%.
Take `Cc1cc2cnn(Cc3ccc(Cl)cc3)c2cc1Br` [Compound 201]: in experiment [1], the activity at 5 µM was > 80% and the activity at 10 µM lay within 55 to 80%.
With `Cc1cc2c(cnn2Cc2ccc(Cl)cc2)cc1Br` [Compound 202], in experiment [1], the activity at 5 µM was > 80% and the activity at 10 µM is > 80%.
On to `O=[N+]([O-])c1cc2cnn(Cc3ccc(Cl)cc3)c2cc1Cl` [Compound 203], for which, in experiment [1], the activity at 5 µM was > 80% and the activity at 10 µM fell in the range of 20 to 54%.
In the case of `Cc1cc2c(cnn2Cc2ccc(Cl)cc2)cc1[N+](=O)[O-]` [Compound 204], in experiment [1], the activity at 5 µM lay within 55 to 80% and the activity at 10 µM was 20 to 54%.
Take `Clc1ccc(Cn2ncc3cc(Br)ccc32)cc1` [Compound 205]: in experiment [1], the activity at 5 µM was > 80% and the activity at 10 µM lay in the range of 55 to 80%.
Take `Cc1cc2nn(Cc3ccc(Cl)cc3)cc2cc1Cl` [Compound 206]: in experiment [1], the activity at 5 µM was > 80% and the activity at 10 µM fell in the range of 55 to 80%.
Regarding `Cc1cc2cn(Cc3ccc(Cl)cc3)nc2cc1Br` [Compound 207], in experiment [1], the activity at 5 µM is > 80% and the activity at 10 µM lay within 55 to 80%.
For `Cc1cc2nn(Cc3ccc(Cl)cc3)cc2cc1Br` [Compound 208] the same measures were 55 to 80% and 20 to 54%.
Turning to `O=[N+]([O-])c1cc2cn(Cc3ccc(Cl)cc3)nc2cc1Cl` [Compound 209], in experiment [1], the activity at 5 µM was > 80% and the activity at 10 µM was > 80%.
Consider `Cc1cc2nn(Cc3ccc(Cl)cc3)cc2cc1[N+](=O)[O-]` [Compound 210], for which, in experiment [1], the activity at 5 µM was 20 to 54% and the activity at 10 µM was 20 to 54%.
Take `Clc1ccc(Cn2cc3cc(Br)ccc3n2)cc1` [Compound 211]: in experiment [1], the activity at 5 µM is > 80% and the activity at 10 µM was 55 to 80%.
For the molecule `FC(F)(F)c1ccc2cn(Cc3ccc(Cl)cc3)nc2c1` [Compound 212], in experiment [1], the activity at 5 µM is 55 to 80% and the activity at 10 µM lay in the range of 20 to 54%.
For the molecule `OCC1CCN(CCCOc2nn(Cc3ccc(Cl)cc3)c3ccccc23)CC1` [EBP502], the EC50 in experiment [2] (setting [4]) is > 25 µM; in experiment [3] (setting [5]), 4.2 µM.
With `O[C@@H]1CN(CCCOc2nn(Cc3ccc(Cl)cc3)c3ccccc23)C[C@@H]1O` [EBP514], the EC50 is > 25 µM in experiment [2] (setting [4]) and 5.1 µM in experiment [3] (setting [5]).
On to `Clc1ccc(Cn2nc(OCCCN3CC=CC3)c3ccccc32)cc1` [EBP519], for which the EC50 in experiment [2] (setting [6]) was > 25 µM; in experiment [3] (setting [5]), 18 µM.
In the case of `COC[C@H]1CCCN1CCCOc1nn(Cc2ccc(Cl)cc2)c2ccc(N(C)c3ccccc3)cc12` [EBP522], the figures for the EC50 in experiment [2] (setting [4]) and in experiment [3] (setting [5]) were > 25 µM and 6 µM, respectively.
Take `Clc1ccc(Cn2nc(OCCCN3CC4CC3CO4)c3ccccc32)cc1` (stereo not drawn) [EBP528]: the EC50 was 8.4 µM in experiment [2] (setting [6]) and 7.9 µM in experiment [3] (setting [5]).
With `COCC1CCN(CCCOc2nn(Cc3ccc(Cl)cc3)c3ccccc23)CC1` [EBP530], the EC50 was > 25 µM in experiment [2] (setting [4]) and 7.9 µM in experiment [3] (setting [5]).
On to `Nc1ccc2c(c1)c(OCCCN1CCCC1)nn2Cc1ccc(Cl)cc1` [EBP531], for which the EC50 in experiment [2] (setting [4]) was > 25 µM; in experiment [3] (setting [5]), 3.9 µM.
As for `CS(=O)(=O)Nc1ccc2c(c1)c(OCCCN1CCCC1)nn2Cc1ccc(Cl)cc1` [EBP532], the EC50 in experiment [2] (setting [4]) is > 25 µM; in experiment [3] (setting [5]), 8.5 µM.
In the case of `Clc1ccc(Cn2nc(OCCCCN3CCCC3)c3ccccc32)cc1` [EBP548], the EC50 was > 25 µM in experiment [2] (setting [4]) and 3.2 µM in experiment [3] (setting [5]).
Take `Clc1ccc(Cn2nc(OCC3CCCNC3)c3cc(Cl)ccc32)cc1` (stereo not drawn) [EBP590]: the EC50 in experiment [2] (setting [4]) worked out at 11 µM; in experiment [3] (setting [5]) it was 7.3 µM.
Regarding `O[C@@H]1CCN(CCCOc2nn(Cc3ccc(Cl)cc3)c3ccc(Cl)cc23)C1` [EBP644], the EC50 in experiment [2] (setting [4]) is > 25 µM; in experiment [3] (setting [5]), 7.5 µM.
`C[C@@H]1CCCN1CCCOc1nn(Cc2ccc(Cl)cc2)c2ccc(Cl)cc12` [EBP645]: the EC50 in experiment [2] (setting [4]) was > 25 µM; in experiment [3] (setting [5]), 8 µM.
On to `C[C@H]1CCCN1CCCOc1nn(Cc2ccc(Cl)cc2)c2ccc(Cl)cc12` [EBP646], for which the EC50 was > 25 µM in experiment [2] (setting [4]) and 6.6 µM in experiment [3] (setting [5]).
Consider `OC[C@@H]1CCCN1CCCOc1nn(Cc2ccc(Cl)cc2)c2ccc(Cl)cc12` [EBP647], for which the EC50 in experiment [2] (setting [4]) was > 25 µM; in experiment [3] (setting [5]), 7.6 µM.
On to `Clc1ccc(Cn2nc(OCCCN3CCC[C@H]3CN3CCCC3)c3cc(Cl)ccc32)cc1` [EBP649], for which the EC50 in experiment [2] (setting [4]) was > 25 µM; in experiment [3] (setting [5]), 5.6 µM.
Consider `C[C@H]1CCCN1CCCOc1nn(Cc2ccc(Cl)cc2)c2ccc(Br)cc12` [EBP743], for which the EC50 in experiment [3] (setting [5]) came out at 8.1 µM.
Regarding `C[C@H]1CCCN1CCCOc1nn(Cc2ccc(Cl)cc2)c2ccc(-c3cccnc3)cc12` [EBP846], the EC50 in experiment [3] (read-out: 1b EC50, 1b replicon, Huh7, 48 hours, top concentration 25 μM) came out at 8.2 µM.
With `C[C@H]1CCCN1CCCOc1nn(Cc2ccc(Cl)cc2)c2ccc(-c3ccoc3)cc12` [EBP864], the results for the EC50 in experiment [2] (setting [4]) and in experiment [3] (setting [5]) were > 25 µM and 6.4 µM, respectively.
On to `C[C@H]1CCCN1CCCOc1nn(Cc2ccc(Cl)cc2)c2ccc(N3CCCCC3)cc12` [EBP865], for which, in experiment [3] (setting [5]), the EC50 turned out to be 8.2 µM.
Turning to `C[C@H]1CCCN1CCCOc1nn(Cc2ccc(Cl)cc2)c2ccc(-c3cccnc3)cc12` [EBP897], the EC50 in experiment [2] (setting [4]) is > 25 µM; in experiment [3] (setting [5]) it was 7.2 µM.
Regarding `COc1cncc(-c2ccc3c(c2)c(OCCCN2CCC[C@@H]2C)nn3Cc2ccc(Cl)cc2)c1` [EBP898], the results for the EC50 in experiment [2] (setting [4]) and in experiment [3] (setting [5]) were > 25 µM and 5.3 µM, respectively.
Consider `C[C@H]1CCCN1CCCOc1nn(Cc2ccc(Cl)cc2)c2ccc(-c3ccc(N4CCOCC4)nc3)cc12` [EBP899], for which the figures for the EC50 in experiment [2] (setting [4]) and in experiment [3] (setting [5]) were > 25 µM and 2.2 µM, respectively.
As to `CC(=O)Nc1ccc(-c2ccc3c(c2)c(OCCCN2CCC[C@@H]2C)nn3Cc2ccc(Cl)cc2)cn1` [EBP900], the figures for the EC50 in experiment [2] (setting [4]) and in experiment [3] (setting [5]) were > 25 µM and 5.6 µM, respectively.
As to `Cc1ccncc1-c1ccc2c(c1)c(OCCCN1CCC[C@@H]1C)nn2Cc1ccc(Cl)cc1` [EBP901], the EC50 in experiment [2] (setting [4]) is > 25 µM; in experiment [3] (setting [5]) it was 5.5 µM.
For `COc1ccc(-c2ccc3c(c2)c(OCCCN2CCC[C@@H]2C)nn3Cc2ccc(Cl)cc2)cn1` [EBP902] the same measures were > 25 µM and 8.3 µM.
On to `C[C@H]1CCCN1CCCOc1nn(Cc2ccc(Cl)cc2)c2ccc(-c3cnc(N)nc3)cc12` [EBP903], for which the EC50 is > 25 µM in experiment [2] (setting [4]) and 6.5 µM in experiment [3] (setting [5]).
The corresponding values for `C[C@H]1CCCN1CCCOc1nn(Cc2ccc(Cl)cc2)c2ccc(-c3ccncc3)cc12` [EBP904] are > 25 µM and 8.2 µM.
The corresponding values for `C[C@H]1CCCN1CCCOc1nn(Cc2ccc(Cl)cc2)c2ccc(NC3CCCCC3)cc12` [EBP917] are > 25 µM and 8 µM.
The corresponding values for `C[C@H]1CCCN1CCCOc1nn(Cc2ccc(Cl)cc2)c2ccc(N3CCCCCC3)cc12` [EBP918] are 11 µM and 8.2 µM.
For the molecule `C[C@H]1CCCN1CCCOc1nn(Cc2ccc(Cl)cc2)c2ccc(N(C)Cc3ccccc3)cc12` [EBP924], the EC50 in experiment [2] (setting [4]) was > 25 µM; in experiment [3] (setting [5]), 5.7 µM.
`C[C@H]1CCCN1CCCOc1nn(Cc2ccc(Cl)cc2)c2ccc(N(C)c3ccccc3)cc12` [EBP925]: the EC50 in experiment [2] (setting [4]) was > 25 µM; in experiment [3] (setting [5]) it was 5.7 µM.
